{
  "source": "patent US7767240B2",
  "about": "“Microbiological control in poultry processing” (priority 2001, dated 2010)",
  "key": {"[1]": {"test_system": "Pseudomonas aeruginosa ATCC 15442", "test": "Bacteria count per bird over 20-day storage (Example 4)", "assay_type": "cell-based", "conditions": "pH 8", "method": "A study was conducted to determine the effect of Clorox® bleach, and 1,3-dibromo-5,5-dimethylhydantoin (DBDMH) on carcass bacteria residual after 1.5 hour in a chill tank solution and spoilage 20-day shelf life longevity (caused by bacteria contamination). Tests were conducted at pH 8 (adjusted by trisodium phosphate). Skin pigmentation (Minolta Color Meter L value or Lightness, a value or redness and b value or yellowness) were determined before and post-processing.\nIn general the study involved normal processing of 56-day-old birds, immersing carcasses first in a warm bath containing 10^4 per mL Escherichia coli, 10^4 per mL Salmonella enteritidis, 10^4 per mL Pseudomonas aeruginosa, 10^4 per mL Campylobacter jejuni, and 10^4 per mL spoilage bacteria each from […] strains (Listeria monocytogenes and Shigella sonnei). Carcass were then immersed in a chill tank “soup”, containing normal organic fluids (blood, fat, skin, and meat particles) and containing various disinfectants (termed test materials).\nA DBDMH stock solution and test solutions, a bacteria stock solution, and a “chicken soup” were prepared as in Example 3. In addition, the bacterial broth treatments, the whole bird wash sampling procedure, and the methodologies used for quantitative or qualitative determinations for bacterial organisms were conducted as in Example 3.\nIn greater detail the trial events and experimental design used in this group of tests were as follows: • a) Test microorganisms used were: • Escherichia coli ATCC 11229 • Pseudomonas aeruginosa ATCC 15442 • Salmonella enteritidis ATCC 13076 • Shigella sonnei ATCC 9290 • Listeria monocytogenes ATCC 7644 • Campylobacter jejuni ATCC 29428 • b) Test Procedure: All test strains were grown individually at 35° C. for 24 hours in the media specified in Table 12. Cells were harvested by centrifugation at 10,000×g for 10 minutes and washed twice with Butterfield's Phosphate Buffer (BPB of pH 7.2). Cells were resuspended in BPB to obtain a cell suspension of approximately 1.0×10^8 CFU/mL for each microorganism. The target inoculum levels were approximately 10^6 CFU/mL in the final test solutions. In the cases of S. enteritidis and P. aeruginosa the species were washed by pouring into prepared sterile centrifuge tubes with cheesecloth filters. The culture was then pelleted and washed using above techniques and repeated 3 times. • c) The birds (56 days old) were processed under normal commercial conditions. • d) The bacteria were added to a large batch of the “chicken soup”, and then aliquots of the resultant mixture were distributed equally among the chill waters used for each test. Then the particular disinfectant composition under test was added to one of the chill waters. […]"}, "[2]": {"test_system": "Escherichia coli field strain", "test": "Chill water bacteria reduction (Example 2)", "assay_type": "cell-based", "method": "The trial events and experimental design used were as follows: • a) For all treatments a total of 190 birds were processed in a normal fashion. Each treatment involved use of 10 birds. • b) A warm (100° F.) bath was prepared containing 5×10^4 DelMarVa (Delaware-Maryland farm area) field Escherichia coli stain bacteria per mL. At least 200 mL of total bath fluid was provided for each bird. • c) All birds (both controls and treated) were randomly immersed into the warm bath. Both the inside and outside carcass areas were immersed to assure complete coverage. • d) Each separate chill tank water solution (normal tap water adjusted pH to 8.5, ice added to produce temperatures of <45° F.) contained 2×10^3 per mL bacteria. • e) The chill tank water solutions (at least 750 mL each) were be prepared for each disinfecting treatment, and birds were immersed for a period of 1.5 hours. • f) Each 10 minutes during the 1.5 hour chilling period, the birds were completely lifted out of solution and then reimersed in the solution. After the 1.5 hour chilling period, the birds were taken from the chill water and drained for 30 seconds, then promptly (within 5 minutes) placed into a sterile whole bird stomacher bag containing 400 mL diluent (Butterfield's Phosphate Diluent) bacteria collection. • g) Diluent (400 mL) was added to each carcass contained in a sterile stomacher bag while making sure to pour the diluent into the inside of the abdominal cavity. The carcass was rinsed inside and out with a rocking motion for one minute (ca. 35 RPM). […] After the fluids had been diluted, 0.1 mL of fluid was be placed on a MacConkey agar plate and bacteria counts determined. In cases where the goal of a 25-250 count on the plate was not achieved, another dilution and replating were conducted. • j) After all carcasses for each treatment had been dipped, water sample bacteria were determined. • k) Total bacteria per bird were calculated. […]"}},
  "data": [
    {"smiles": "CC1(C)C(=O)N(Br)C(=O)N1Br", "note": "[DBDMH, 1,3-dibromo-5,5-dimethylhydantoin]", "values": [
      {"measurement": "average bacteria count per bird, P. aeruginosa", "setting": "[1]; Day 0, 10 ppm", "value": 743, "unit": "per bird"},
      {"measurement": "average bacteria count per bird, P. aeruginosa", "setting": "[1]; Day 0, 20 ppm", "value": 6, "unit": "per bird"},
      {"measurement": "average bacteria count per bird, P. aeruginosa", "setting": "[1]; Day 2, 10 ppm", "value": 820, "unit": "per bird"},
      {"measurement": "average bacteria count per bird, P. aeruginosa", "setting": "[1]; Day 2, 20 ppm", "value": 9, "unit": "per bird"},
      {"measurement": "average bacteria count per bird, P. aeruginosa", "setting": "[1]; Day 4, 10 ppm", "value": 931, "unit": "per bird"},
      {"measurement": "average bacteria count per bird, P. aeruginosa", "setting": "[1]; Day 4, 20 ppm", "value": 13, "unit": "per bird"},
      {"measurement": "average bacteria count per bird, P. aeruginosa", "setting": "[1]; Day 6, 10 ppm", "value": 1013, "unit": "per bird"},
      {"measurement": "average bacteria count per bird, P. aeruginosa", "setting": "[1]; Day 6, 20 ppm", "value": 25, "unit": "per bird"},
      {"measurement": "average bacteria count per bird, P. aeruginosa", "setting": "[1]; Day 8, 10 ppm", "value": 1268, "unit": "per bird"},
      {"measurement": "average bacteria count per bird, P. aeruginosa", "setting": "[1]; Day 8, 20 ppm", "value": 48, "unit": "per bird"},
      {"measurement": "average bacteria count per bird, P. aeruginosa", "setting": "[1]; Day 10, 10 ppm", "value": 1485, "unit": "per bird"},
      {"measurement": "average bacteria count per bird, P. aeruginosa", "setting": "[1]; Day 10, 20 ppm", "value": 91, "unit": "per bird"},
      {"measurement": "average bacteria count per bird, P. aeruginosa", "setting": "[1]; Day 12, 10 ppm", "value": 1730, "unit": "per bird"},
      {"measurement": "average bacteria count per bird, P. aeruginosa", "setting": "[1]; Day 12, 20 ppm", "value": 186, "unit": "per bird"},
      {"measurement": "average bacteria count per bird, P. aeruginosa", "setting": "[1]; Day 14, 10 ppm", "value": 2055, "unit": "per bird"},
      {"measurement": "average bacteria count per bird, P. aeruginosa", "setting": "[1]; Day 14, 20 ppm", "value": 363, "unit": "per bird"},
      {"measurement": "average bacteria count per bird, P. aeruginosa", "setting": "[1]; Day 16, 10 ppm", "value": 2560, "unit": "per bird"},
      {"measurement": "average bacteria count per bird, P. aeruginosa", "setting": "[1]; Day 16, 20 ppm", "value": 700, "unit": "per bird"},
      {"measurement": "average bacteria count per bird, P. aeruginosa", "setting": "[1]; Day 18, 10 ppm", "value": 3087, "unit": "per bird"},
      {"measurement": "average bacteria count per bird, P. aeruginosa", "setting": "[1]; Day 18, 20 ppm", "value": 826, "unit": "per bird"},
      {"measurement": "average bacteria count per bird, P. aeruginosa", "setting": "[1]; Day 20, 10 ppm", "value": 3853, "unit": "per bird"},
      {"measurement": "average bacteria count per bird, P. aeruginosa", "setting": "[1]; Day 20, 20 ppm", "value": 908, "unit": "per bird"},
      {"measurement": "Mean Chill Water Bacteria Reduction (%)", "setting": "[2]; 50 ppm Cl2 (equivalent)", "value": 99.9999, "unit": "%"},
      {"measurement": "Mean Chill Water Bacteria Reduction (%)", "setting": "[2]; 100 ppm Cl2 (equivalent)", "value": 99.9999, "unit": "%"},
      {"measurement": "Mean Chill Water Bacteria Reduction (%)", "setting": "[2]; 150 ppm Cl2 (equivalent)", "value": 99.9999, "unit": "%"}
    ]}
  ]
}
